Test results reported in US20240197711A1, “Combination Therapy for Cancer Treatment” (THE REGENTS OF THE UNIVERSITY OF MICHIGAN, priority 2021, published 2024).
“Also recorded” adds a separate entry of the source.

Experiments:
[1] = system: tumors driven by mt-KRAS or mt-BRAF; assay: NC160 Tumor Cell panel; type: cell-based; conditions: several tumors driven by mt-KRAS or mt-BRAF
[2] = biological target: T1, EGFR (Homo sapiens, UniProt P00533); assay: Loss/depletion of EGFR from treated tumor cells; type: cell-based
T1 construct: they all coexpress wild-type (wt)—EGFR along with the KRAS or BRAF oncogene; endogenous in cells
Excerpt: However, binding of ODDERs to EGFR prevents activated EGFR from forming the stable molecular complexes required to protect them from being rapidly internalized and degraded by the normal cellular protein degradation mechanisms, which is exactly what these molecules were designed to do. […] The kinase catalytic domain then unbinds both the product, a tyrosyl phosphate monoester, and the byproduct ADP, and can then bind further ATP and substrate as the catalytic cycle continues. There appear to be two major uses for tyrosine phosphorylation in a substrate molecule. The first is that conformational changes in the substrate protein are often driven by the conversion of a neutral, somewhat hydrophobic, tyrosine side chain into a highly hydrophilic phosphotyrosine, with two negative charges at physiological pH. The second is that there are binding sites on many proteins for phosphotyrosine residues, which induce new protein-protein interactions for the substrate protein, frequently changing its cellular localization and/or allowing it to assemble into new multiprotein complexes, both of which can lead the substrate protein to show very different activities after phosphorylation. […] This recruits the intermediate proteins which lead to the activation of the before mentioned signaling cascades. […]

[3] = system: SGLT1; assay: Loss of EGFR-chaperoned transporter SGLT1 from cells; type: cell-based; conditions: along with EGFR
Excerpt: (§1) It was reasoned that the activity seen in these susceptible tumor lines was largely due to EGFR KIFs. Tumors cells are always metabolically stressed, and in actual tumors poor circulation makes the stress even more severe on the tumor interior, which is usually hypoxic once the tumor has growth to more than 100 mm^3. […] As tumor cells try to run in […] glycolysis, they have a much larger glucose requirement than normal cells, and any hindrance of glucose import would be expected to stress cells, pushing them away from aerobic glycolysis, and towards oxidative phosphorylation to produce ATP, which in turn would almost certainly increase production of reactive oxygen intermediates (ROI) in these already abnormally metabolizing cells. The most common ways of disposing of ROI are via conjugation with glutathione, or reaction with various reducing enzymes, most of which rely on cysteine thiols for their RedOx ability. Both of these mechanisms require stressed cells to be able to import large amounts of cysteine, much of which is produced by the liver and put into circulation, as the high demand totally overwhelms endogenous cysteine biosynthesis (which requires methionine as its source of sulfur). […]

[4] = system: xCT; assay: Loss of EGFR-chaperoned transporter xCT from cells; type: cell-based; conditions: along with EGFR
Excerpt: as §1

[5] = system: cells driven by mt-KRAS, mt-BRAF, and mt-EGFR; assay: Oxidative stress in cells, hydrogen peroxide levels as marker; type: cell-based; conditions: six hours post treatment
Excerpt: Signs of oxidative stress in cells were investigated after addition of increasing amounts of Compound A with hydrogen peroxide levels being chosen as a marker of increased oxidative stress. […] Consideration was given to ways of exploiting oxidative stress in these tumor types. Oxidative stress both contributes towards causing DNA damage, and makes DNA damage more difficult to repair. So a combination of an ODDER (e.g., Compound A) with a DNA damaging agent, such as radiation, may result in useful therapeutic regimen. Compound A and radiation was examined in vivo xenograft experiments in mt-EGFR, mt-KRAS, and mt-BRAF driven tumors. […] Thus, it is believed that ODDER compounds, such as Compound A, can be used in combination with radiation to treat localized tumors which express either mutant KRAS or mutant BRAF. […] Other ODDER compounds are also expected to have similar lower on target toxicity.

[6] = system: osimertinib-resistant PC9 non-small cell lung cancer xenografts; assay: PC9 xenograft, Compound A with or without radiation, tumor volume; type: in vivo, mice
Description: (§2) Mice bearing locally advanced xenograft (PC9, RKO, or UMSCC74B) were treated with vehicle (control); daily oral gavage of Compound A (also referred to as DPI-503), radiation plus vehicle, or a combination of daily oral gavage of Compound A and radiation. Tumor volumes were measured using calipers at least three times a week.

[7] = system: RKO BRAF V600E colorectal cancer tumors; assay: RKO xenograft, Compound A with or without radiation, tumor volume; type: in vivo, mice; conditions: mt-BRAF RKO, 100 mg/kg daily oral, 2 GY/day five days a week for 3 weeks
Description: as §2

[8] = system: UMSCC74B KRAS G12D head and neck squamous cell carcinoma tumor; assay: UMSCC74B xenograft, Compound A with or without radiation, tumor volume; type: in vivo, mice; conditions: mt-KRAS UMSCC74B; 30 mg/kg biw for 2 weeks oral; 2 GY/day five days a week for 3 weeks
[9] = On target toxicity compared with EGFR inhibitors

T1 sequence (P00533 25-1210): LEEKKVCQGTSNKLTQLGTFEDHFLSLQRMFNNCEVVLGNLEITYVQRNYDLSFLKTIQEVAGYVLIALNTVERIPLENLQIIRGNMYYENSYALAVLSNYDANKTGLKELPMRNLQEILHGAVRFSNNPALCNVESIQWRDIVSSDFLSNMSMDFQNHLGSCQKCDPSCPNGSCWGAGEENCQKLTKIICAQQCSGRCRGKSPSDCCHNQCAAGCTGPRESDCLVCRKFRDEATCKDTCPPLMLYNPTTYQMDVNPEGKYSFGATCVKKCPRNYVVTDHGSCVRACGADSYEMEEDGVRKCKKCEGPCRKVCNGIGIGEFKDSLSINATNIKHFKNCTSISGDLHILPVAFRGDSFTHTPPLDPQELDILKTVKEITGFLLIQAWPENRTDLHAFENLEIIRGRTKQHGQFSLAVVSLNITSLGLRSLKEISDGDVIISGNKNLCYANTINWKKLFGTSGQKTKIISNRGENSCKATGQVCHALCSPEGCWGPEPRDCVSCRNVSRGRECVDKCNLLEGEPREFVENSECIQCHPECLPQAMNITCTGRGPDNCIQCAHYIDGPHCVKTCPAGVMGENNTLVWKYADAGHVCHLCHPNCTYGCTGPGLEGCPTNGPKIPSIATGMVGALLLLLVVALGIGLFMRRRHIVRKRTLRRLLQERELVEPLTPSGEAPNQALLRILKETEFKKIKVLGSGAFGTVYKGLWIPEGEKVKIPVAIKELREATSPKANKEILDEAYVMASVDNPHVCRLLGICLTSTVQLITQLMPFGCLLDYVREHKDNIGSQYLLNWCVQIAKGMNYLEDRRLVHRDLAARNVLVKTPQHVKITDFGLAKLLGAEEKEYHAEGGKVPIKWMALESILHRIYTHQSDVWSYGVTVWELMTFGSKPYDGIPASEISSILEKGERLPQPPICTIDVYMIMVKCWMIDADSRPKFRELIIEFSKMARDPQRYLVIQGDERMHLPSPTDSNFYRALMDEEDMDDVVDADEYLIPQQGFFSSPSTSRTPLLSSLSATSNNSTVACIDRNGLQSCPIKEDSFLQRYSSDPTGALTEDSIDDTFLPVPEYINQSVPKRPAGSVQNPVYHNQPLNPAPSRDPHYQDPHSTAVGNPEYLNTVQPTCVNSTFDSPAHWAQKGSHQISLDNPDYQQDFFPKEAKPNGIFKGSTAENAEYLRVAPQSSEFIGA

SMILES: CN1CCC2(CC1)N=C(SCC(=O)Nc1cnc3ccccc3c1)C(c1ccc(Br)cc1)=N2 [Compound A]
- anti-proliferative activity [1]: considerable anti-proliferative activity
- loss of EGFR from the cell surface [2]: loss of EGFR from the cell surface
- ablation of SGLT1 transporter [3]: ablated along with EGFR
- ablation of xCT transporter [4]: ablated along with EGFR
- H2O2 levels, dose dependence ([5]; increasing amounts of compound): dose-dependent increase
- increase in cellular H2O2 levels ([5]; top dose tested): 2-4 fold
- active tumor by gross pathology or histochemistry ([6]; Day 155, end of experiment, treatment group not named, presumably combination): active tumor could not be detected
- anti-tumor effect of Compound A combined with radiation (tumor volume) ([6]; mt-EGFR PC9, 75 mg/kg five times a week for 3 weeks oral, 2 Gy/day five times a week for 3 weeks): unexpectedly exhibited efficacy; also recorded: strongly increased
- anti-tumor effect of Compound A combined with radiation (tumor volume) [7]: unexpectedly exhibited efficacy; also recorded: strongly increased
- anti-tumor effect of Compound A combined with radiation (tumor volume) [8]: unexpectedly exhibited efficacy; also recorded: strongly increased
- on target toxicity [9]: much less on target toxicity than EGFR inhibitors
